For 20 compounds, Ki results are on record in US8710065B2, “Tricyclic inhibitors of kinases” (AbbVie Inc., priority 2011, dated 2014).

Structures are written as SMILES.

The target in the assay is T1, GST-tagged-Wee1 kinase (Homo sapiens, UniProt P30291).
T1 construct: purchased Carnabio (Carna Biosciences) 05-177
T1 sequence (P30291 whole entry): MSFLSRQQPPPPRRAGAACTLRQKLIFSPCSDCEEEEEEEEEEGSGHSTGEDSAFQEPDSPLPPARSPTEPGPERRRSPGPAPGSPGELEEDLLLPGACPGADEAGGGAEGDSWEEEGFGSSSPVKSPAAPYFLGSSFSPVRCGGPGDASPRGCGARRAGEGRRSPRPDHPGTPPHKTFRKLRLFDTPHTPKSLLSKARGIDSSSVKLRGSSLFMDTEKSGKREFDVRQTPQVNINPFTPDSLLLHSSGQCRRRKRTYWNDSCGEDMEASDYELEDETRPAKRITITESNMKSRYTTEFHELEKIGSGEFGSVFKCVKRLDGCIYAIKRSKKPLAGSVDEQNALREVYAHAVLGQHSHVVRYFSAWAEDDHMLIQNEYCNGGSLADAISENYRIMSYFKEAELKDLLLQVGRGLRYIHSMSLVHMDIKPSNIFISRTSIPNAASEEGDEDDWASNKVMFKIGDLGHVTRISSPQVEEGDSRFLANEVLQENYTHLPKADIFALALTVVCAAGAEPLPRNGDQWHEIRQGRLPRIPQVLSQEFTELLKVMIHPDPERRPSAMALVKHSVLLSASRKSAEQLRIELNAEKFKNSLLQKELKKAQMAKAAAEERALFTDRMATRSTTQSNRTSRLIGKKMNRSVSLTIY
Nature of the assay: Wee1 time-resolved fluorescence equilibrium binding assay (displacement of Oregon Green-labeled ATP-competitive kinase probe). The note with it: read-out: Wee-1 inhibition (Ki). An outline of the steps: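 Ki values derive from competitive displacement, under equilibrium, of a fast-reversible ATP-site Oregon Green kinase probe from GST-tagged Wee1, detected by time-resolved fluorescence.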
With `CC(C)(C)C(=O)N1Cc2cc(Nc3ncc4c(=O)n(-c5c(Cl)cccc5Cl)c5nccn5c4n3)ccc2C2(CC2)C1` [Example 276, 6-(2,6-dichlorophenyl)-2-{[2′-(2,2-dimethylpropanoyl)-2′,3′-dihydro-1′H-spiro[cyclopropane-1,4′-isoquinolin]-7′-yl]amino}imidazo[1,2-a]pyrimido[5,4-e]pyrimidin-5(6H)-one], the Ki (as a rule, a dissociation constant, usually derived from enzyme kinetics or from competition with a known ligand) is less than 0.01 µM.

Turning to `O=c1c2cnc(Nc3cnc4c(c3)CNCC4)nc2n2ccnc2n1-c1c(F)cccc1Cl` [Example 277, 6-(2-chloro-6-fluorophenyl)-2-(5,6,7,8-tetrahydro-1,6-naphthyridin-3-ylamino)imidazo[1,2-a]pyrimido[5,4-e]pyrimidin-5(6H)-one], the inhibition constant (Ki) fell in the range of 0.01 to 0.1 µM. To `O=c1c2cnc(Nc3ccc4c(c3)CNCC43CC3)nc2n2ccnc2n1-c1cccc(O)c1Cl` [Example 278, 6-(2-chloro-3-hydroxyphenyl)-2-(2′,3′-dihydro-1′H-spiro[cyclopropane-1,4′-isoquinolin]-7′-ylamino)imidazo[1,2-a]pyrimido[5,4-e]pyrimidin-5(6H)-one] belongs less than 0.01 µM. Under `Cc1cc(O)ccc1-n1c(=O)c2cnc(Nc3ccc4c(c3)CNCC43CC3)nc2n2ccnc12` [Example 279, 2-(2′,3′-dihydro-1′H-spiro[cyclopropane-1,4′-isoquinolin]-7′-ylamino)-6-(4-hydroxy-2-methylphenyl)imidazo[1,2-a]pyrimido[5,4-e]pyrimidin-5(6H)-one] stands less than 0.01 µM. Turning to `CC1(C)CN(CC(F)F)Cc2cc(Nc3ncc4c(=O)n(-c5c(F)cccc5Cl)c5nccn5c4n3)ccc21` [Example 280, 6-(2-chloro-6-fluorophenyl)-2-{[2-(2,2-difluoroethyl)-4,4-dimethyl-1,2,3,4-tetrahydroisoquinolin-7-yl]amino}imidazo[1,2-a]pyrimido[5,4-e]pyrimidin-5(6H)-one], the Ki lay in the range of 0.01 to 0.1 µM.

As for `CC1(C)CN(CCF)Cc2cc(Nc3ncc4c(=O)n(-c5c(F)cccc5Cl)c5nccn5c4n3)ccc21` [Example 281, 6-(2-chloro-6-fluorophenyl)-2-{[2-(2-fluoroethyl)-4,4-dimethyl-1,2,3,4-tetrahydroisoquinolin-7-yl]amino}imidazo[1,2-a]pyrimido[5,4-e]pyrimidin-5(6H)-one], the inhibition constant (Ki) is less than 0.01 µM. To `O=c1c2cnc(Nc3ccc(N4CCC(N5CCCCC5)CC4)cc3)nc2n2ccnc2n1-c1c(Cl)cccc1Cl` [Example 282, 2-{[4-(1,4′-bipiperidin-1′-yl)phenyl]amino}-6-(2,6-dichlorophenyl)imidazo[1,2-a]pyrimido[5,4-e]pyrimidin-5(6H)-one] belongs less than 0.01 µM.

For `CN(C)[C@@H]1CCN(c2ccc(Nc3ncc4c(=O)n(-c5c(Cl)cccc5Cl)c5nccn5c4n3)cc2)C1` [Example 283, 6-(2,6-dichlorophenyl)-2-({4-[(3R)-3-(dimethylamino)pyrrolidin-1-yl]phenyl}amino)imidazo[1,2-a]pyrimido[5,4-e]pyrimidin-5(6H)-one], the Ki was less than 0.01 µM. To `CN(C)CCNc1ccc(Nc2ncc3c(=O)n(-c4c(Cl)cccc4Cl)c4nccn4c3n2)cc1` [Example 284, 6-(2,6-dichlorophenyl)-2-[(4-{[2-(dimethylamino)ethyl]amino}phenyl)amino]imidazo[1,2-a]pyrimido[5,4-e]pyrimidin-5(6H)-one] belongs less than 0.01 µM. Take `O=c1c2cnc(Nc3ccc4c(c3)CN(S(=O)(=O)C3CC3)CC43CC3)nc2n2ccnc2n1-c1c(Cl)cccc1Cl` [Example 285, 2-{[2′-(cyclopropylsulfonyl)-2′,3′-dihydro-1′H-spiro[cyclopropane-1,4′-isoquinolin]-7′-yl]amino}-6-(2,6-dichlorophenyl)imidazo[1,2-a]pyrimido[5,4-e]pyrimidin-5(6H)-one]: the inhibitory constant (Ki) was less than 0.01 µM.

Regarding `CC(C)S(=O)(=O)N1Cc2cc(Nc3ncc4c(=O)n(-c5c(Cl)cccc5Cl)c5nccn5c4n3)ccc2C2(CC2)C1` [Example 286, 6-(2,6-dichlorophenyl)-2-{[2′-(propan-2-ylsulfonyl)-2′,3′-dihydro-1′H-spiro[cyclopropane-1,4′-isoquinolin]-7′-yl]amino}imidazo[1,2-a]pyrimido[5,4-e]pyrimidin-5(6H)-one], the inhibitory constant (Ki) was less than 0.01 µM. Under `CN1CCC(c2ccc(Nc3ncc4c(=O)n(-c5c(Cl)cccc5Cl)c5nccn5c4n3)cc2)CC1` [Example 287, 6-(2,6-dichlorophenyl)-2-{[4-(1-methylpiperidin-4-yl)phenyl]amino}imidazo[1,2-a]pyrimido[5,4-e]pyrimidin-5(6H)-one] stands less than 0.01 µM. To `O=c1c2cnc(Nc3ccc(N4CCC5(CC4)CNC5)cc3)nc2n2ccnc2n1-c1c(Cl)cccc1Cl` [Example 288, 2-{[4-(2,7-diazaspiro[3.5]non-7-yl)phenyl]amino}-6-(2,6-dichlorophenyl)imidazo[1,2-a]pyrimido[5,4-e]pyrimidin-5(6H)-one] belongs less than 0.01 µM; to `O=c1c2cnc(Nc3ccc(N4CCCC4C(F)(F)F)cc3)nc2n2ccnc2n1-c1ccccc1Cl` (centres unmarked) [Example 289, 6-(2-chlorophenyl)-2-({4-[2-(trifluoromethyl)pyrrolidin-1-yl]phenyl}amino)imidazo[1,2-a]pyrimido[5,4-e]pyrimidin-5(6H)-one], 0.01 to 0.1 µM; to `O=c1c2cnc(Nc3ccc(OC4CCNCC4)cc3)nc2n2ccnc2n1-c1ccccc1Cl` [Example 290, 6-(2-chlorophenyl)-2-{[4-(piperidin-4-yloxy)phenyl]amino}imidazo[1,2-a]pyrimido[5,4-e]pyrimidin-5(6H)-one], less than 0.01 µM. Under `O=c1c2cnc(Nc3ccc(CC4CCNCC4)cc3)nc2n2ccnc2n1-c1ccccc1Cl` [Example 291, 6-(2-chlorophenyl)-2-{[4-(piperidin-4-ylmethyl)phenyl]amino}imidazo[1,2-a]pyrimido[5,4-e]pyrimidin-5(6H)-one] stands less than 0.01 µM. As for `O=c1c2cnc(Nc3ccc(N4CC5CNCC5C4)cc3)nc2n2ccnc2n1-c1ccccc1Cl` (centres unmarked) [Example 292, 6-(2-chlorophenyl)-2-{[4-(hexahydropyrrolo[3,4-c]pyrrol-2(1H)-yl)phenyl]amino}imidazo[1,2-a]pyrimido[5,4-e]pyrimidin-5(6H)-one], the Ki was less than 0.01 µM. To `CNS(=O)(=O)Cc1ccc(Nc2ncc3c(=O)n(-c4ccccc4Cl)c4nccn4c3n2)cc1` [Example 293, 1-(4-{[6-(2-chlorophenyl)-5-oxo-5,6-dihydroimidazo[1,2-a]pyrimido[5,4-e]pyrimidin-2-yl]amino}phenyl)-N-methylmethanesulfonamide] belongs 0.01 to 0.1 µM; to `CCN(CC)S(=O)(=O)c1ccc(Nc2ncc3c(=O)n(-c4ccccc4Cl)c4nccn4c3n2)cc1` [Example 294, 4-{[6-(2-chlorophenyl)-5-oxo-5,6-dihydroimidazo[1,2-a]pyrimido[5,4-e]pyrimidin-2-yl]amino}-N,N-diethylbenzenesulfonamide], 0.01 to 0.1 µM. Under `O=c1c2cnc(Nc3ccc4c(c3)CC(NC3CC3)C4)nc2n2ccnc2n1-c1c(Cl)cccc1Cl` (centres unmarked) [Example 295, 2-{[2-(cyclopropylamino)-2,3-dihydro-1H-inden-5-yl]amino}-6-(2,6-dichlorophenyl)imidazo[1,2-a]pyrimido[5,4-e]pyrimidin-5(6H)-one] stands less than 0.01 µM.
